Experimental findings from publication PMC11106165, “Repurposing the KCa3.1 Blocker Senicapoc for Ischemic Stroke” (Translational Stroke Research, 2023) are described below.

The subject of data set [1] is male C57BL/6 J mice, tMCAO. Nature of the data set: tMCAO in mice, 14-point tactile and proprioceptive limb-placing score. The data set is classed as in vivo, mouse. Particulars: for maximum neurological score reached: vehicle maximum 5; for average neurological score (14-point): started 12 h, day 8, vehicle average 3. Here is the method: Reversible focal cerebral ischemia was induced by occlusion of the left middle cerebral artery (MCA) according to the classic filament method of Zea Longa as previously described for mice by our laboratory. All surgeries were performed in the MicroSurgery Core of the UC Davis School of Medicine by a microsurgeon with 20 years of surgical experience using a silicone rubber-coated nylon monofilament with a tip diameter of 0.21 ± 0.02 mm (No. 702112PK5Re, Doccol Corporation). Anesthesia was induced with 5% isoflurane and then maintained with 0.5 to 1.5% isoflurane in medical pure oxygen administered through a facemask. To assure consistent and continuous reduction of cerebral blood flow (CBF), a laser Doppler (Moor Instruments: MOORVMS-LDF) probe adapter was affixed to the surface of the skull over the brain area supplied by the MCA using dental cement. The probe remained in place throughout the MCAO surgery and CBF was measured continuously to confirm occlusion and later establishment of reperfusion. Animals were kept under anesthesia and body temperature was monitored throughout the whole procedure and maintained at > 36.5 °C using a feedback-controlled heating pad. Following 60 min of MCAO, the filament was withdrawn to allow reperfusion. Blood flow measurements were continued for another 15 min before removing the adapter and the laser Doppler probe. Animals received subcutaneous Buprenex at 0.02 mg/kg every 12 h to limit post-surgical pain for 24 h after surgery. The survival rate was 93%. […] In this study, out of the animals surviving to day 8 (45 out of 48), two animals were excluded because they lacked an obvious neurological deficit score at 12 h. Animals that met inclusion criteria were assigned to the 3 groups (low- and high-dose senicapoc or vehicle) based on a computer-generated randomization scheme. Six sham animals, where the filament was placed into the external carotid artery but not advanced, were used as controls for the qPCR experiments.
Starting at 12 h after tMCAO, and following the first neurological scoring, animals received either the vehicle, Miglyol 812 neutral oil (Medium chain triglycerides, Spectrum Chemicals), a low dose of senicapoc at 10 mg/kg, or a high dose of senicapoc at 40 mg/kg via intraperitoneal (IP) injection. Mice then received the same dosage of senicapoc (or vehicle) IP every 12 h for a total of 14 doses. In the experiment in Fig. 7, drug administration was started 3 h after reperfusion. Senicapoc was synthesized in our laboratory as described. Chemical identity and purity (> 98%) were tested by ^1H and ^13C-NMR and HPLC.
Since filament MCAO induces infarction in both the striatum and the cortex, we used the 14-point score tactile and proprioceptive limp-placing test to evaluate mice every 24 h. […] The scoring was performed as previously described in detail. The investigator performing the scoring was blinded to the treatment groups.

Data set [2] has as its system male C57BL/6 J mice, tMCAO. Nature of the data set: Immunohistochemistry (Iba-1, CD3, NeuN) of infarcted hemisphere on day 8 after MCAO. The data set is classed as in vivo, mouse. The text has this: After the MRI on day 8, animals were euthanized with an overdose of isoflurane, and brains were quickly removed and sectioned into four 2-mm-thick coronal slices starting from the frontal pole. […] Cell nuclei were visualized with 4′,6-diamidino-2-phenylindole (DAPI).
The images were then opened on the BZ-X Analyzer, the left (infarcted) hemisphere for each section extracted and analyzed with a macro within the “Hybrid Cell Count” feature of the BZ-X Analyzer program. Images were thresholded to exclusively the area of stained cells without considering artifacts, ventricles, or folds. Each macro-generated image was verified by careful visual inspection. Results for Iba1 and CD3 are reported as percentage of section area (µm^2) that was positively stained, divided by total section area (µm^2) in the infarcted left hemisphere. NeuN is reported as the inverse of the percentage of section area (µm^2) that was positively stained, divided by total section area (µm^2) in the infarcted left hemisphere in order to quantify the Neu negative area.

Data set [3] is described as follows: Brain tissue extract binding by rapid equilibrium dialysis. The data set is classed as in vitro ADME. Particulars: mouse brain extract, triplicate. The method, then: In order to determine whether senicapoc sufficiently engages its target, additional mice were subjected to 60 min of MCAO, treated with 40 mg/kg senicapoc IP 12 h after reperfusion and then sacrificed 1 h, 4 h, and 12 h later. Mice were deeply anesthetized with isoflurane, and blood was collected from the vena cava into EDTA tubes, and then transcardially perfused with 30 mL of saline. The brain was removed, and the forebrain divided into ipsi- and contralateral side. Brain and plasma samples were stored at − 80 °C pending analysis and then prepared and analyzed as previously described using a Waters Acquity UPLC (Waters, NY) equipped with a Acquity UPLC BEH 1.7 μm C-18 column interfaced to a TSQ Quantum Access Max mass spectrometer (Thermo Fisher Scientific, MA). Senicapoc was analyzed by the selective reaction monitoring transition of its molecular ion peak 324.09 (M + 1) into 228.07, 200.07, 183.11, and 122.18 m/z. An 8-point calibration curve ranging from 50 nM to 10 μM was used for quantification. Senicapoc plasma protein binding was determined with mouse plasma or mouse brain extract in triplicate using rapid equilibrium devices with a molecular weight cutoff of 8 kD (RED, Fisher Scientific).

In the case of `NC(=O)C(c1ccccc1)(c1ccc(F)cc1)c1ccc(F)cc1` [senicapoc], the “maximum neurological score reached” value in data set [1] (10 mg/kg low-dose group) turned out to be 9; in data set [1] (40 mg/kg high-dose group), 10. The “average neurological score (14-point)” value in data set [1] (10 mg/kg) was found to be 7; in data set [1] (40 mg/kg), 9. For the same compound, in data set [1] (40 mg/kg started 3 h after tMCAO), the “sensorimotor coordination (neurological deficit score)” value was “improved on both day 3 and day 8”. Besides, the “neuronal death (NeuN-negative area)” value in data set [2] is recorded as “decreases neuronal death”. In addition, the “T cell infiltration (CD3 staining)” value in data set [2] (40 mg/kg) is listed as “significantly reduced”. The “microglia/macrophage activation and infiltration (Iba1 staining)” value in data set [2] (40 mg/kg) is reported as “significantly reduced”. The “binding to brain tissue extract” value in data set [3] is on record as 98.1 ± 0.5%.
